From paper PMC4669708 (Cell Death & Disease, 2015)

Experiments:
Experiment in all cases: c-ponatinib pulldown LC-MS/MS
Type in all cases: binding
BLK = BLK (Homo sapiens, UniProt P51451)
Summary of the method: (§1)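 Affinity matrix: 25 nmol c-ponatinib/50 μl NHS-Sepharose; 10 mg whole cell lysate input; duplicate pulldowns, each run twice by LC-MS/MS. DTT/iodoacetamide, trypsin. Human SwissProt search, protein FDR <1%. Competition with free compound; fold reduction = median spectral count ratio.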

TAB1 = target: T1, TAB1 (Homo sapiens, UniProt Q15750)
T1 sequence (Q15750 1-504): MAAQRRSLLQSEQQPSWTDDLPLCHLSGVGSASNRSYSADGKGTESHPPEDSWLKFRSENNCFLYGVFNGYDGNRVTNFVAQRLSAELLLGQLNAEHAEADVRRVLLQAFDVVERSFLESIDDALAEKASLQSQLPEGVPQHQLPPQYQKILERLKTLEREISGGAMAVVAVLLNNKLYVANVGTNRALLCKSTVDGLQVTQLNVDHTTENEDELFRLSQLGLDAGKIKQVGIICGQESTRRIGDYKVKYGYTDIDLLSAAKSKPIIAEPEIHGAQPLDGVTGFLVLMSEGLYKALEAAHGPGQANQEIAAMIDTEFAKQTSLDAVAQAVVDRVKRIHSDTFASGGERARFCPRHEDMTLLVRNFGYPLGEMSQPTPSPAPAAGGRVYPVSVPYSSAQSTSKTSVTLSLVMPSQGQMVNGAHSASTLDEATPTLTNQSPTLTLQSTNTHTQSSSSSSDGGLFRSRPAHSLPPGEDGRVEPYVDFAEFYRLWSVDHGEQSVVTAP
T1 sequence (O43318 1-606 partner): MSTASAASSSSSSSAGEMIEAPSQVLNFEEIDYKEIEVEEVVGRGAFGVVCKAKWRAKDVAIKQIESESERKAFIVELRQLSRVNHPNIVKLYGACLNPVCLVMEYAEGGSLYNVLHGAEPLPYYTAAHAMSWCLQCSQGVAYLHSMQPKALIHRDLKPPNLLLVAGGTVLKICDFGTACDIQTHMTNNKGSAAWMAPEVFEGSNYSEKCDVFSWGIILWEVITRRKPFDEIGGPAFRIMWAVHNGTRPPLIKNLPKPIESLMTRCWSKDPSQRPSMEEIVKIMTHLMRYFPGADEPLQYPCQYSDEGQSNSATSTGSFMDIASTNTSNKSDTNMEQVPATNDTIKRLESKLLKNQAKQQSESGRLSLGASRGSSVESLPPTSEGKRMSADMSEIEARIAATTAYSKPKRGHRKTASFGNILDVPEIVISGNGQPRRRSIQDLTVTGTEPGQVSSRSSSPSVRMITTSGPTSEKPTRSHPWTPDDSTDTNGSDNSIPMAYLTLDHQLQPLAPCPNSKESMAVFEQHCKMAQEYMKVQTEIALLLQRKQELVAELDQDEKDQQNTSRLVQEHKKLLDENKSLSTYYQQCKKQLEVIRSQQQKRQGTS
Summary of the method: as §1

UNC119 = UNC119 (Homo sapiens, UniProt Q13432)
Summary of the method: as §1

TPM4 = TPM4 (Homo sapiens, UniProt P67936)
Chain of TPM4 (P67936 whole entry): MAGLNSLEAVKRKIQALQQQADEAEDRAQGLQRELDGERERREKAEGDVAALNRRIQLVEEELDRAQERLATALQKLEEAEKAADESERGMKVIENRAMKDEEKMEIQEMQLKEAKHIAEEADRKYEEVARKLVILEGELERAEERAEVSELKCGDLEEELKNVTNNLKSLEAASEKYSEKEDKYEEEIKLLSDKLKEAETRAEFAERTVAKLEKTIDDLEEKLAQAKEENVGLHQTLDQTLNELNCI
Summary of the method: as §1

RIPK3 = RIPK3 (Homo sapiens, UniProt Q9Y572)
Chain of RIPK3 (Q9Y572 whole entry): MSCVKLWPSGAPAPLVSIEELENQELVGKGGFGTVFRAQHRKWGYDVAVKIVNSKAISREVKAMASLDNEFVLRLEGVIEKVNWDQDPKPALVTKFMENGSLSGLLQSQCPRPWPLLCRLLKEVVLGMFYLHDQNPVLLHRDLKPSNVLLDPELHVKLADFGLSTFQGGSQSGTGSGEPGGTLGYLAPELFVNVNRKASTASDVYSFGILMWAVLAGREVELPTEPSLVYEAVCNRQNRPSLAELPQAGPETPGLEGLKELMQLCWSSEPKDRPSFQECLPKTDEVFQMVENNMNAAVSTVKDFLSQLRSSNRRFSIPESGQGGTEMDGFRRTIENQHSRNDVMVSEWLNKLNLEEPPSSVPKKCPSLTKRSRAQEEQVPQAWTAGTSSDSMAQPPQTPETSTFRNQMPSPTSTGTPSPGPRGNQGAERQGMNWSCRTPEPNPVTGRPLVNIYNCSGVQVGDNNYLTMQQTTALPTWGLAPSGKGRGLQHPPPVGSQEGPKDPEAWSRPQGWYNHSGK
Summary of the method: as §1

CDK19 = CDK19 (Homo sapiens, UniProt Q9BWU1)
Chain of CDK19 (Q9BWU1 whole entry): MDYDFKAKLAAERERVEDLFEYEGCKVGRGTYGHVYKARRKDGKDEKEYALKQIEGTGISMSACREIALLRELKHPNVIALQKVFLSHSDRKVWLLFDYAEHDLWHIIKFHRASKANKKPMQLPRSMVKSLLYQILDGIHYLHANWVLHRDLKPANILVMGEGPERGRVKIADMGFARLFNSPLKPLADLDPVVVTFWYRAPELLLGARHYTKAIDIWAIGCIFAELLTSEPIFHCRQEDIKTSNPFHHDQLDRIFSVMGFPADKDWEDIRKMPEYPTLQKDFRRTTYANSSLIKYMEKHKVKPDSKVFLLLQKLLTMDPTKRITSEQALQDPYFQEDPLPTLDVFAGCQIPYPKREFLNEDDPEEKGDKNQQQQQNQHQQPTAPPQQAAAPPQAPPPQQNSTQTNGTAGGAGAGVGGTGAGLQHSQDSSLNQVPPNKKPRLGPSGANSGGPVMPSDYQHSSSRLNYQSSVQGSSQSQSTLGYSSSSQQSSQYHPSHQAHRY
Chain of CDK19 (P24863 whole entry partner): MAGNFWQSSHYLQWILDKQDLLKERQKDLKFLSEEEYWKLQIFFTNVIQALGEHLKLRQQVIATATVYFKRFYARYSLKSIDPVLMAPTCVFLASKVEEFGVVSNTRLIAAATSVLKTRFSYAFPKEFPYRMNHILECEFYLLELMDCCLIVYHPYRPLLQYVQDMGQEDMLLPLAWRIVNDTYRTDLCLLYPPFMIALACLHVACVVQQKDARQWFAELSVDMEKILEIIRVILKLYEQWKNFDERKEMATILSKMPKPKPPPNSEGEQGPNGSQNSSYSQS
Summary of the method: as §1

Chain of BLK (P51451 whole entry): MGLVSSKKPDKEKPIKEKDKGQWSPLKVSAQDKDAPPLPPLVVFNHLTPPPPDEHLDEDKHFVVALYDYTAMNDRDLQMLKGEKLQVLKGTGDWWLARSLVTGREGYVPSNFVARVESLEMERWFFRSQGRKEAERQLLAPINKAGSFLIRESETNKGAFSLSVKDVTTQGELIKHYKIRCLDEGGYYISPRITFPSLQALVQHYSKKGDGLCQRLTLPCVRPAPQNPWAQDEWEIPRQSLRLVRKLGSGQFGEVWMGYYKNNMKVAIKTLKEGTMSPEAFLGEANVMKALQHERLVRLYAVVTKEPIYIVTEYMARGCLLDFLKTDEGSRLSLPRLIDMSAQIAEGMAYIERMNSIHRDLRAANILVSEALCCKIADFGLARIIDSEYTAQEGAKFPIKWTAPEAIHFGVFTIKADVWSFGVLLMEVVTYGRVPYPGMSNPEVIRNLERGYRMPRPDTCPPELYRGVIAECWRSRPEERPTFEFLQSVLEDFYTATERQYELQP

Av. SC comp. (BLK; + free ponatinib): 0
Total SC comp. (BLK; + free ponatinib): 0
Av. SC (BLK; no competitor): 9.5
Total SC (BLK; no competitor): 38
Av. SC comp. (TAB1; + free ponatinib): 6.75
Total SC comp. (TAB1; + free ponatinib): 27
Av. SC (TAB1; no competitor): 38.25
Total SC (TAB1; no competitor): 153
Av. SC comp. (UNC119; + free ponatinib): 0
Total SC comp. (UNC119; + free ponatinib): 0
Av. SC (UNC119; no competitor): 20.5
Total SC (UNC119; no competitor): 82
Av. SC comp. (TPM4; + free ponatinib): 0.25
Total SC comp. (TPM4; + free ponatinib): 1
Av. SC (TPM4; no competitor): 3.5
Total SC (TPM4; no competitor): 14
Av. SC comp. (RIPK3; + free ponatinib): 0
Total SC comp. (RIPK3; + free ponatinib): 0
Av. SC (RIPK3; no competitor): 17
Total SC (RIPK3; no competitor): 68
Av. SC comp. (CDK19; + free ponatinib): 0
Total SC comp. (CDK19; + free ponatinib): 0
Av. SC (CDK19; no competitor): 7.5
Total SC (CDK19; no competitor): 30
SMILES: Cc1ccc(C(=O)Nc2ccc(CN3CCN(CCCN)CC3)c(C(F)(F)F)c2)cc1C#Cc1cnc2cccnn12 [c-ponatinib]
